Data as given in PubChem BioAssay AID190 (DTP/NCI, 2004).
Inconclusive results and toxic doses are left out.

Test system: AKR/Lw mice, AKR lymphoma ip, median survival T/C
Test: NCI In Vivo Anticancer Drug Screen. Data for tumor model Lymphoma AKR (Transplanted) (intraperitoneal) in AKR/Lw mice
Details: endpoint: median survival time, higher = longer survival
Procedure: The antitumor activity of compounds was measured in mice bearing transplantable tumors. Survival or tumor size were measured and the results are expressed as the measurement made in the treated group (T) divided by the measurement made in the vehicle treated control group (C). The tumor model used in this assay is Lymphoma AKR (Transplanted) (intraperitoneal) in AKR/Lw mice

[1] = dose: 100.0 mg/kg/injection, schedule: Q01DX001 (ip), vehicle: saline
[2] = dose: 100.0 mg/kg/injection, schedule: Q01DX001 (ip), vehicle: Klucel (hydroxypropylcellulose) (HPC)
[3] = dose: 200.0 mg/kg/injection, schedule: Q01DX001 (ip), vehicle: Klucel (hydroxypropylcellulose) (HPC)
[4] = dose: 400.0 mg/kg/injection, schedule: Q01DX001 (ip), vehicle: Klucel (hydroxypropylcellulose) (HPC)
[5] = dose: 100.0 mg/kg/injection, schedule: Q04DX003 (ip), vehicle: Klucel (hydroxypropylcellulose) (HPC)
[6] = dose: 200.0 mg/kg/injection, schedule: Q04DX003 (ip), vehicle: Klucel (hydroxypropylcellulose) (HPC)
[7] = dose: 400.0 mg/kg/injection, schedule: Q04DX003 (ip), vehicle: Klucel (hydroxypropylcellulose) (HPC)
[8] = dose: 200.0 mg/kg/injection, schedule: Q01DX001 (ip), vehicle: saline
[9] = dose: 400.0 mg/kg/injection, schedule: Q01DX001 (ip), vehicle: saline

COc1ccccc1N1C(N)=NC(N)=NC1(C)C
T/C (dose: 11.0 mg/kg/injection, schedule: Q01DX001 (ip), vehicle: saline): 109 % of control | T/C (dose: 11.0 mg/kg/injection, schedule: Q04DX003 (ip), vehicle: saline): 91 % of control | T/C (dose: 16.0 mg/kg/injection, schedule: Q01DX001 (ip), vehicle: saline): 88 % of control | T/C (dose: 25.0 mg/kg/injection, schedule: Q01DX001 (ip), vehicle: saline): 113 % of control | T/C (dose: 25.0 mg/kg/injection, schedule: Q04DX003 (ip), vehicle: saline): 102 % of control | T/C (dose: 37.5 mg/kg/injection, schedule: Q01DX001 (ip), vehicle: saline): 102 % of control | T/C (dose: 37.5 mg/kg/injection, schedule: Q04DX003 (ip), vehicle: saline): 88 % of control | T/C [1]: 90 % of control

CC(C)c1ccc(C(c2c(O)c3ccccc3oc2=O)c2c(O)c3ccccc3oc2=O)cc1
T/C [2]: 113 % of control | T/C [3]: 106 % of control | T/C [4]: 90 % of control

CC(=O)OCC(=O)[C@@]1(O)CC[C@H]2[C@@H]3C[C@H](F)C4=CC(=O)CC[C@]4(C)[C@H]3C(=O)C[C@@]21C
T/C (dose: 50.0 mg/kg/injection, schedule: Q04DX003 (ip), vehicle: saline with Tween-80): 103 % of control | T/C (dose: 100.0 mg/kg/injection, schedule: Q01DX001 (ip), vehicle: saline with Tween-80): 90 % of control | T/C (dose: 200.0 mg/kg/injection, schedule: Q01DX001 (ip), vehicle: saline with Tween-80): 111 % of control

COc1ccc(Br)cc1/C=N\NS(=O)(=O)c1ccc(C)cc1
T/C [2]: 106 % of control | T/C [5]: 106 % of control | T/C [3]: 100 % of control | T/C [6]: 86 % of control | T/C [4]: 100 % of control | T/C [7]: 86 % of control

O=NN(CCCl)C(=O)NC1CC2CCC1C2 (centres undefined)
T/C (dose: 0.31 mg/kg/injection, schedule: Q04DX004 (ip), vehicle: Klucel (hydroxypropylcellulose) (HPC)): 115 % of control | T/C (dose: 0.62 mg/kg/injection, schedule: Q04DX004 (ip), vehicle: Klucel (hydroxypropylcellulose) (HPC)): 93 % of control | T/C (dose: 0.75 mg/kg/injection, schedule: Q04DX008 (ip), vehicle: Klucel (hydroxypropylcellulose) (HPC)): 102 % of control | T/C (dose: 1.25 mg/kg/injection, schedule: Q04DX004 (ip), vehicle: Klucel (hydroxypropylcellulose) (HPC)): 112 % of control | T/C (dose: 1.5 mg/kg/injection, schedule: Q04DX008 (ip), vehicle: Klucel (hydroxypropylcellulose) (HPC)): 108 % of control | T/C (dose: 2.5 mg/kg/injection, schedule: Q04DX004 (ip), vehicle: Klucel (hydroxypropylcellulose) (HPC)): 112 % of control | T/C (dose: 5.0 mg/kg/injection, schedule: Q04DX004 (ip), vehicle: Klucel (hydroxypropylcellulose) (HPC)): 120 % of control | T/C (dose: 5.0 mg/kg/injection, schedule: Q04DX008 (ip), vehicle: Klucel (hydroxypropylcellulose) (HPC)): 150 % of control | T/C (dose: 10.0 mg/kg/injection, schedule: Q04DX004 (ip), vehicle: Klucel (hydroxypropylcellulose) (HPC)): 114 % of control | T/C (dose: 20.0 mg/kg/injection, schedule: Q04DX004 (ip), vehicle: Klucel (hydroxypropylcellulose) (HPC)): 114 % of control

OC1(C#CC2(O)c3ccccc3-c3ccccc32)c2ccccc2-c2ccccc21
T/C [2]: 105 % of control | T/C [3]: 108 % of control | T/C [4]: 102 % of control

Clc1ccc(/C(=[C](\[Hg]/[C](=C(\c2ccccc2)c2ccc(Cl)cc2)c2ccccc2)c2ccccc2)c2ccccc2)cc1
T/C [2]: 97 % of control | T/C [5]: 100 % of control | T/C [3]: 107 % of control | T/C [6]: 88 % of control | T/C [4]: 97 % of control | T/C [7]: 100 % of control

c1ccc2c(c1)CNCc1ccccc1-2
T/C [1]: 97 % of control

COc1cc(N)c2ncccc2c1SC
T/C [8]: 102 % of control | T/C [9]: 106 % of control

NCOC(=O)Cc1ccc(Br)cc1
T/C [2]: 106 % of control | T/C [3]: 102 % of control | T/C [4]: 106 % of control

S=C1SCN(Cc2ccccc2)CN1Cc1ccccc1
T/C [1]: 111 % of control | T/C [8]: 91 % of control | T/C [9]: 91 % of control

Brc1cc(Br)c(-c2c(Br)cc(Br)cc2Br)c(Br)c1
T/C [2]: 103 % of control | T/C [3]: 100 % of control | T/C [4]: 96 % of control

O=C(/C=C/C(=O)Oc1ccc(Cl)cc1)Oc1ccc(Cl)cc1
T/C [2]: 92 % of control | T/C [3]: 89 % of control | T/C [4]: 107 % of control
